Measurements: patent publication US20260000729A1, “COMBINATION THERAPIES FOR TREATMENT OF CANCER” (The Regents of the University of Michigan, priority 2022, published 2026)

Tests used:
[1] = tested on: PC3-luc cells; experiment: Radiograph of injected tibia at necropsy: bone degradation and percent osteolytic area; format: in vivo, mice; details: proximal third of tibia, no significant differences among the groups
Protocol: After 30 days, at the time of necropsy, tumor growth in mouse tibia was checked by radiograph and mice were sacrificed, and serum and bone were collected. Serum was kept at −80° C. and tibia were stored in 10% buffered formalin at room temperature for 48 hours before being stored at 4° C.
Radiographic images were imported into SketchandCalc software. The proximal third of the tibia was traced to calculate its area and defined as total area, then osteolytic areas were traced to calculate the total osteolytic area (FIG. 3A) and the percent osteolytic area/bone area was calculated.

[2] = tested on: PC3-luc cells; experiment: Intratibial PC3-luc tumor growth in SCID mice, checked weekly by BLI; format: in vivo; details: BAL 20 mg/kg s.c. twice daily, DOC 5 mg/kg i.p. once a week, weeks 1-4, combination p=0.009
Protocol: Methods: 59 severe combined immunodeficiency (SCID) mice received intratibial injection with PC3-luc cells (2×10^4 cells in 20 ul). Balixafortide (20 mg/kg) (BAL) and vehicle were injected subcutaneously twice daily starting on day one and Docetaxel (5 mg/kg) (DOC) was injected intraperitoneal once a week starting on day one. The tumor growth in mouse tibia was checked weekly by BLI.

| Compound | percent osteolytic area/bone area (mean) [1] | tumor growth / total tumor burden in mouse tibia (BLI) [2] |
| --- | --- | --- |
| CC(=O)O[C@@]12CO[C@@H]1C[C@H](O)[C@@]1(C)C(=O)[C@H](O)C3=C(C)[C@@H](OC(=O)[C@H](O)[C@@H](NC(=O)OC(C)(C)C)c4ccccc4)C[C@@](O)([C@@H](OC(=O)c4ccccc4)[C@H]21)C3(C)C [Docetaxel, (2R,3S)—N-carboxy-3-phenylisoserine,N-tert-butylester, 13 ester with 5ß-20-epoxy-1,2a,4,78,10B,13a-hexahydroxytax-11-en-9-one 4-acetate 2 benzoate] | lower than vehicle or Balixafortide | neither BAL nor DOC impacted tumor growth as sole agents |
| cyclo(-Tyr-His-Ala-Cys-Ser-Ala-^DPro-Dab-Arg-Tyr-Cys-Tyr-Gln-Lys-^DPro-Pro-) having a disulfide bond between Cys4 and Cys11 [Balixafortide] | no significant differences among the groups | neither BAL nor DOC impacted tumor growth as sole agents |
